Results published in patent US12636291B2, “Compositions and methods relating to use of agonists of ALPHA5-containing GABAA receptors” (Centre for Addiction and Mental Health, priority 2019, dated 2026).

Test system: Layer II/III pyramidal cells of prefrontal cortex (PFC)
Assay: Golgi staining morphological analysis of PFC pyramidal cells
Assay type: in vivo, mouse
Conditions: for spine density versus branch orders, overall: FIG. 17A; for spine density versus branch orders, basal dendrites: FIG. 17B; for spine density versus branch orders, apical dendrites: FIG. 17C; for spine density at 30 micron intervals from the soma, overall: FIG. 18A; for spine density at 30 micron intervals from the soma, basal dendrites: FIG. 18B; for spine density at 30 micron intervals from the soma, apical dendrites: FIG. 18C
Protocol: Details of the animals, materials, and methods used are provided following the discussion section below. Briefly, all studies discussed below were conducted using three groups of animals designated “Young” (2 months of age at the beginning of the 8-week study, 4 months of age at time of testing; “Old” (22 months of age at beginning of study, 24 months of age at time of testing); and “Treatment” (“Old” mice who received GL-II-73 in the drinking water for 8 weeks prior to evaluation of cognitive ability and pyramidal cell morphology). The last study further included a fourth group of animals, “Treatment+Washout” which were treated the same as the “Treatment” group except that the GL-II-73 was removed for a 1 week “wash-out” period prior to evaluation of pyramidal cell morphology.
Table 1 summarizes the results of a quantitative assessment of the morphological properties of Layer II/III pyramidal cells of prefrontal cortex (PFC) between Young, Old, and Treatment groups. […] Check marks represent countable spines; X's represent uncountable spines. The total number of sampled neurons in the PFC study was 72 cells with a total of 1,888 dendritic segments, 193,698 total dendritic lengths (μm), and 199,529 spine counts, respectively.
Table 2 summarizes the results of a quantitative assessment of the morphological properties of Layer II/III pyramidal cells of prefrontal cortex (PFC) between Young, Old, Old-Treatment, and Old-washout groups. As noted above, mice assigned to the “Young” group were 2 months of age at the beginning of the 8-week study and 4 months of age at time of testing; mice assigned to the “Old” group were 22 months of age at beginning of study, 24 months of age at time of testing; mice assigned to the “Old-Treatment” group were the same age as the “Old” group and received GL-II-73 in their drinking water for 8 weeks prior to evaluation; and mice assigned to the “Old-washout” group were the same age and treatment as the “Old-Treatment” group except that the GL-II-73 was removed for a 1 week “wash-out” period prior to evaluation. Differences in total dendritic lengths, overall spine counts, and overall spine density between groups were determined via ANOVA analysis.
Drug preparation and administration: The compound GL-II-73 was administered in the drinking water for 8 weeks, and made fresh every other day to prevent any deterioration of the compound in the water at room temperature. The solution was prepared at 30 mg/kg for an estimated volume of 8 ml/mouse/day, based on previous calculations. For the pilot study in the 5×FAD mouse model, the compound GL-II-73 was prepared for intra peritoneal injection only, at a dose of 10 mg/kg. Vehicle solution was made of 85% distilled water, 14% propylene glycol and 1% tween-80.
Brain collection and Golgi staining: Twenty-four hours after the completion of the behavioral testing, mice were euthanized using cervical dislocation. Brains were carefully collected from the skull, rinsed with MilliQ water and immersed in the Golgi staining solution provided by Neurodigitech (San Diego, CA). Six hours after the beginning of the incubation, the solution was changed to provide fresh solution. Then brains were left incubating for 14 days at room temperature, in the dark. For better results, vials containing the brains were gently swirled 3 times a week. After the incubation period, the staining solution was discarded and replaced by a storage solution and brains (n=4 per group) were shipped to Neurodigitech for morphological analysis.
Slice preparation: Brains were cut at 40 μm thickness using a cryostat and mounted on glass slides. The slides included serial coronal sections that covered the anterior-to-posterior axis of the brain. The sampling of ROIs included the basal and apical dendrites of pyramidal cells in Layers II/III of PFC. […]

[1] = Table 1, first study, Old, Treatment group, 4 samples
[2] = Table 2, washout study, Old, Treatment group, 4 samples
[3] = Table 2, Old, Washout group, 4 samples
[4] = washout study, FIG. 15B, Treatment vs Old mice, p<0.05
[5] = washout study, FIG. 15B, Washout vs Old mice, p<0.05
[6] = washout study, FIG. 16B, Old+Treatment vs Old mice, p<0.05
[7] = washout study, FIG. 16B, Washout vs Old mice, p<0.05
[8] = washout study, Old+Treatment vs Old mice, p<0.05
[9] = washout study, Washout vs Old mice, p<0.05

C#Cc1ccc2c(c1)C(c1ccccc1F)=N[C@H](C)c1c(C(=O)N(C)C)ncn1-2 (stereo in doubt) [GL-II-73, 8-ethynyl-6-(2-fluorophenyl)-N,N,4-trimethyl-4H-benzo[f]imidazo[1,5-a][1,4]diazepine-3-carboxamide]
Total segments (Table 1, first study, Old, Treatment group (GL-II-73 in drinking water 8 weeks), 4 samples): 666 | Overall spinal density [1]: 1.01 | Total lengths (microns) [1]: 66,656 microns | total spine counts [1]: 67,107 | Total segments (Table 2, washout study, Old, Treatment group (8 weeks GL-II-73), 4 samples): 1180 | Overall spinal density [2]: 1.11 | Total lengths (microns) [2]: 58395 microns | total spine counts [2]: 64863 | Total segments (Table 2, Old, Washout group (8 weeks GL-II-73, then 1 week wash-out), 4 samples): 1253 | Overall spinal density [3]: 1.17 | Total lengths (microns) [3]: 59414 microns | total spine counts [3]: 69305 | total dendritic lengths (first study, FIG. 3A, treatment group vs young mice, p>0.05): no significant difference in total dendritic length between the young mice and the treatment group | total dendritic lengths, basal dendrite (first study, FIG. 3B, between groups, p>0.05): no difference was found in the basal dendrite between groups | total dendritic lengths, apical dendrites (first study, FIG. 3B, treatment group vs old mice, p<0.05): higher total dendritic lengths of apical dendrites than old mice | total spine counts (first study, FIG. 4A, treatment group vs old mice, p<0.05): higher spine counts than old mice | total spine counts, apical dendrites (first study, FIG. 4B, treatment group vs old mice, p<0.05): higher spine count than old mice | total spine counts, basal dendrites (first study, FIG. 4B, treatment group vs young mice, p>0.05): no difference in both basal and apical dendrites between young mice and the treatment group | overall spine density (first study, FIG. 5A, treatment group vs old mice, p<0.05): higher density than old mice | spine density, apical dendrites (first study, FIG. 5B, treatment group vs old mice, p>0.05): no difference between old mice and the treatment group | spine density × branch orders, overall (first study, FIG. 6A, treatment group vs old mice, p<0.05): higher density at the 1st branch order than old mice | spine density × branch orders, basal dendrites (first study, FIG. 6B, treatment group vs old mice, p<0.05): significantly higher density at the 1st branch order than old mice | spine density × branch orders, apical dendrites (first study, FIG. 6C, treatment group vs old mice, p<0.05): higher density at the 1st order than old mice | spine density × every 30 micron interval from soma, overall (first study, FIG. 7A, Sholl analysis, treatment group vs old mice, p<0.05): higher density at 180 micron interval from soma than old mice | spine density × every 30 micron interval from soma, apical dendrites (first study, FIG. 7C, treatment group vs old mice, p<0.05): higher density at 180 micron interval from soma of the dendritic field than old mice | frequency of intersections × 30 micron interval relative to soma, overall (first study, FIG. 8A, old vs treatment group, p<0.05): significant reductions at a distance of 120-150 micron from the soma between old and young mice as well as between old and the treatment group | frequency of intersections × 30 micron interval, basal dendrites (first study, FIG. 8B, old vs treatment group, p>0.05): a trend of decrease was found at 120-150 micron interval from soma between Old and Young as well as old and the treatment group | frequency of intersections × 30 micron interval, apical dendrites (first study, FIG. 8C, treatment group vs old mice, p<0.05): higher frequency at 120-150 micron interval from soma than old mice | total spine counts (washout study, FIG. 15A, Old+Treatment vs Old mice, p<0.05): more spine counts than Old mice | total spine counts (washout study, FIG. 15A, Washout (1 week after 8 weeks GL-II-73) vs Old mice, p<0.05): more spine counts than Old mice | total spine counts, apical dendrites [4]: higher spine counts | total spine counts, basal dendrites [4]: higher spine counts | total spine counts, apical dendrites [5]: higher spine counts | total spine counts, basal dendrites [5]: higher spine counts | overall spine density (washout study, FIG. 16A, Old+Treatment vs Old mice, p<0.05): higher spine density than Old mice | overall spine density (washout study, FIG. 16A, Washout vs Old mice, p<0.05): higher spine density than Old mice | spine density, apical dendrites [6]: Old mice exhibited a lower spine density than Young, Old+Treatment and Washout mice | spine density, basal dendrite [6]: Old mice showed a significant decrease of spine density in the basal dendrite as compared to Young, Old+Treatment and Washout mice | spine density, apical dendrites [7]: Old mice exhibited a lower spine density than Young, Old+Treatment and Washout mice | spine density, basal dendrite [7]: Old mice showed a significant decrease of spine density in the basal dendrite as compared to Young, Old+Treatment and Washout mice | spine density versus branch orders, overall [8]: higher spine density at the 2nd to 6th | spine density versus branch orders, overall [9]: 3rd to 6th branch orders | spine density versus branch orders, basal dendrites [8]: higher density at the 5th branch order than Old mice | spine density versus branch orders, basal dendrites [9]: higher density at the 5th branch order than Old mice | spine density versus branch orders, apical dendrites [8]: higher density at the 2nd branch order than Old mice | spine density versus branch orders, apical dendrites [9]: higher spine density at the 5th to 6th branch orders than Old mice | spine density at 30 micron intervals from the soma, overall [8]: higher spine density at 150 um to 210 um from soma | spine density at 30 micron intervals from the soma, overall [9]: higher spine density at 90 um to 210 um from soma | spine density at 30 micron intervals from the soma, basal dendrites [8]: higher density between 150 um and 180 um from soma | spine density at 30 micron intervals from the soma, basal dendrites [9]: higher density between 120 um and 180 um from the soma than Old mice | spine density at 30 micron intervals from the soma, apical dendrites [8]: higher density at 180 um to 210 um from soma | spine density at 30 micron intervals from the soma, apical dendrites [9]: higher spine density at 120 um to 210 um from soma
